Assays:
hDcpS = molecular target: T1, hDcpS (Homo sapiens, UniProt Q96C86); format: in vitro ADME; details: 100 μM compound, 20 nM hDcpS; for hDcpS Assay: fraction of the cap remaining after 1 h incubation with DcpS: 37 °C
T1 sequence (Q96C86 1-337): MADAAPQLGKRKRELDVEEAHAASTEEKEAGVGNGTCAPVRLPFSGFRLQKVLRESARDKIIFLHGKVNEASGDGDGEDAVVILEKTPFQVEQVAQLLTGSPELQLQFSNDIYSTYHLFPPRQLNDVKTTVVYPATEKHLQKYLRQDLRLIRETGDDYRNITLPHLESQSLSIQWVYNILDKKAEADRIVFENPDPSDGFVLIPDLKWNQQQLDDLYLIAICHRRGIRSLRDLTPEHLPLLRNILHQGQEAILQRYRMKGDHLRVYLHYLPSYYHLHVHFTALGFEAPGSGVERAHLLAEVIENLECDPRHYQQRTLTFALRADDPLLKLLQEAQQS
Description: Susceptibility to decapping scavenger (DcpS) is one of the factors that could potentially influence the cellular stability of mono- and dinucleotide cap analogs designed as translational inhibitors. Therefore, we studied the susceptibility of arylmethyl-modified dinucleotides to DcpS. The compounds (at 100 μM concentration each) were incubated with 20 nM of hDcpS, and the hydrolysis progress at different time points was analyzed via RP HPLC and compared to m^7GpppG (Figure 4 and Figure S3).
The enzymatic activity of DcpS was assayed at 37 °C in 50 mM Tris∙HCl, pH 7.6 containing 200 mM KCl, 0.5 mM EDTA. DcpS cleavage assays were carried out with 100 μM of the tested compound and 20 nM (monomer) of the hDcpS. Enzymatic reaction progress was examined after 30, 60 and 180 min. As a control, a sample was examined before adding enzyme. Aliquots of 15 μL were terminated by heat inactivation of the enzyme for 3 min at 98 °C. The samples were analyzed via RP HPLC equipped with a Supelcosil LC-18-T column (4.6 × 250 mm, 5 μm, flow rate 1.3 mL/min).

[1] = molecular target: eukaryotic translation initiation factor 4E (eIF4E) (Mus musculus, UniProt P63073); experiment: pyrene-probe fluorescent competitive-binding assay (PyFLINT-B) for cap analog-eIF4E; details: for effect of the N7 substituent on eIF4E binding (in words): compared to m^7GpppG / 1a or unmodified counterpart; for Kd: pyrene-based high-throughput competition assay, 30 °C, KD calculated from EC50, read-out: KD Cap-eIF4E ± SD; for EC50: Table S2
Chain of eukaryotic translation initiation factor 4E (eIF4E) (P63073 whole entry): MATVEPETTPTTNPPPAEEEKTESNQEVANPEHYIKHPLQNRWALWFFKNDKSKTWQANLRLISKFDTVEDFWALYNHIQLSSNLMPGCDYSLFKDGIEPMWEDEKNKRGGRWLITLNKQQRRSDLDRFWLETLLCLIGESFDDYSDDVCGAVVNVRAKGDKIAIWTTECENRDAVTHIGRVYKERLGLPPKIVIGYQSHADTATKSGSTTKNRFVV
Text: High affinity for eIF4E is a desirable feature of cap analogs designed for modulating translation, either as small molecules or as a part of mRNA. Thus, we studied how different substituents at the N7-position affected eIF4E-cap interaction. To this end, we first determined the affinity of m^7GpppG and Bn^7GpppG (1a) using time-synchronized fluorescence quenching titration, a very precise and well-established, but low-throughput method. Next, to evaluate the whole set of the synthesized compounds (1a–1r), we used a high-throughput competitive-binding assay based on a pyrene-labeled fluorescent probe. From this assay we determined relative affinities of the compounds represented by half-effective concentrations (EC50) (Figure 3A–C), which were then used to calculate dissociation constant (KD) values for cap analog–eIF4E complexes using previously reported equations (Table 2, Figure 3D).
To determine the dissociation constants of the library of N7-benzylated dinucleotide 5′ cap analogs for translation initiation factor 4E, a fluorescent competitive-binding assay (PyFLINT-B) was applied as previously described. The experiments were performed on a Synergy™ H1 plate reader in 96-well, black, non-binding assay plates. Each well contained an appropriate buffer (50 mM Hepes/KOH pH 7.2, 100 mM KCl and 0.5 mM EDTA), pyrene probe m^7Gp5C4Py (10 nM), substrate (in half-logarithmic dilutions from 850 μM to 0.03 μM for compound 1m and from 100 μM to 0.003 μM for m^7GpppG and the rest of the compounds) and protein eIF4E (75 nM). The m^7Gp5C4Py was synthesized as describer earlier. The pyrene probe was dissolved in water and concentration was determined spectrometrically at 345 nm using the extinction coefficient (21,000 M^−1 cm^−1). The eIF4E protein was centrifuged after defrosting (5 min, 4 °C, 10k rcf) and its concentration was determined spectrometrically at 280 nm using the extinction coefficient (52,940 M^−1 cm^−1). The reaction mixtures were preincubated (15 min, 300 rpm, 30 °C). All measurements were performed at 30 °C and the fluorescence detection at 345 nm excitation and 378 nm emission was recorded.
To determine EC50 values, GraphPad Prism 9.1.2 software was used. To fit the curves to the obtained data we used the following formula:(1) Y=Bottom+ Top−Bottom/1+ X/EC50 where: X, cap analog (ligand) concentration; EC50, concentration of the cap analog resulting in half-maximal response from the fluorescent probe–protein complex; Bottom, minimal signal from the negative control, which contains only the free probe; Top, maximal signal from the positive control, the mixture of the protein and the fluorescent probe.
The dissociation constants KD were then calculated using the equation described by Nikolovska-Coleska et al.:(2) KD=EC50−Pt+PL50KD_probe/L50+1/L50/KD_probe+P0/KD_probe+1 where: EC50, concentration of the cap analog resulting in half-maximal response from the fluorescent probe–protein complex; [Pt], total protein concentration; [PL]50, concentration of the probe–protein complex at 50% inhibition; KD_probe, dissociation constant of the complex between the fluorescent probe and the protein; [L]50, probe concentration at 50% inhibition; [P]0, free protein concentration at 0% inhibition.

[2] = tested on: cap-dependent translation in rabbit reticulocyte lysate (RRL); experiment: inhibition of cap-dependent translation in rabbit reticulocyte lysate (RRL); format: biochemical; details: RRL, cap analog and mRNA added at the same time (no pre-incubation), 60 min, 30 °C; read-out: Translation Inhibition IC50
Description: After determining the affinity for eIF4E and susceptibility to DcpS, we evaluated the analogs as inhibitors of protein translation in rabbit reticulocyte lysates (RRL). To enable better assessment of how these two factors influenced inhibitory properties, we performed two sets of experiments. In the first set, cap analogs were added to RRL along with luciferase-encoding reporter mRNA followed by a protein activity (luminescence) readout after 1 h, whereas in the second set cap analogs were additionally preincubated in RRL for 1 h prior to addition of mRNA. Based on previously reported findings, we expected that in the second experimental setup, cap analogs susceptible to DcpS would lose their inhibitory potency, whereas compounds resistant to DcpS would remain similarly active.
The ability of the N7-benzyl cap analogues to inhibit cap-dependent translation was assayed in a rabbit reticulocyte lysate (RRL) system. Two sets of experiments were performed. In both variants, in vitro translation reactions (10 μL total volume) contained a tested cap analog (inhibitor) and an in vitro transcribed, ARCA-capped mRNA encoding Gaussia luciferase at 1 μg/mL final concentration. In experimental variant A, cap analogues at concentrations in the range of 0 to 64 μM and mRNA were added to the reaction mixture at the same time. Reactions were incubated at 30 °C for 60 min and then stopped by freezing in liquid nitrogen. In experimental variant B, the cap analogues were added at concentrations in the range of 0 to 160 μM. Reactions were pre-incubated at 30 °C for 60 min prior to addition of mRNA; after addition of mRNA incubation was continuous at 30 °C for 60 min and then stopped by freezing in liquid nitrogen. To detect luminescence from Gaussia luciferase, 50 μL of 10 ng/mL h-coelenterazine (NanoLight, Norman, OK, USA) in PBS was added to 10 μL of RRL and the luminescence was measured with a Synergy H1 (BioTek, Winooski, VT, USA) microplate reader.

eIF4E = eIF4E (Mus musculus, UniProt P63073); experiment: fluorescence anisotropy (FA) competition assay with eIF4E; format: binding; details: Table S2; for EC50: 25 °C, probe m^7GTP-triazol-FAM 10 nM, eIF4E 100 nM; for Kd: calculated from EC50
Chain of eIF4E (P63073 whole entry): as above
Text: The KD values determined from the high-throughput assay were in qualitative agreement with data from time-synchronized fluorescence quenching titration, justifying the use of the former for evaluation of the whole set of caps. […] To additionally verify the binding affinity data (especially for 1q and 1r, as mentioned above), we determined the binding affinities for all analogs using another independent assay, based on fluorescence anisotropy. The KD data determined by this method correlated very well with the results reported above (Table S2, Figure S2).
Fractions of the compounds were independently tested using a different method based on fluorescence anisotropy (FA). These experiments were performed on a Synergy™ H1 plate reader in 96-well, black, non-binding assay plates. Each well contained appropriate buffer (50 mM HEPES/KOH pH 7.2, 100 mM KCl, 0.5 mM EDTA i 1 mM DTT), the fluorescent probe m^7GTP-triazol-FAM (10 nM), substrate (in a 2.08-fold dilution, starting from 60 μM) and protein eIF4E (100 nM). The m^7GTP-triazol-FAM was synthesized as describer earlier. All measurements were performed at 25 °C. Determined EC50 values were means ± SD of three independent experiments. The dissociation constants KD were then calculated using the equation described by Nikolovska-Coleska as described earlier.

Compound | susceptibility to hDcpS (in words) (hDcpS) | hDcpS Assay: fraction of the cap remaining after 1 h incubation with DcpS (hDcpS) | effect of the N7 substituent on eIF4E binding (in words) [1] | Kd [1] [nM] | IC50 [2] [µM] | EC50 (eIF4E) [nM] | Kd (eIF4E) [nM] | EC50 [1] [µM] | conversion after 1 h of incubation with hDcpS (hDcpS) [%]
Cc1ccccc1C[n+]1cn([C@@H]2O[C@H](COP(=O)(O)OP(=O)([O-])OP(=O)(O)OC[C@H]3O[C@@H](n4cnc5c(=O)[nH]c(N)nc54)[C@H](O)[C@@H]3O)[C@@H](O)[C@H]2O)c2nc(N)nc(O)c21 [1b, 2-MeBn^7GpppG] | very slowly hydrolyzed | 0.88 | decreased the binding affinity by eight-fold | 1910 ± 360 | 154 ± 88 | 3100 ± 100 | 1120 | – | –
Cc1ccc(C[n+]2cn([C@@H]3O[C@H](COP(=O)(O)OP(=O)([O-])OP(=O)(O)OC[C@H]4O[C@@H](n5cnc6c(=O)[nH]c(N)nc65)[C@H](O)[C@@H]4O)[C@@H](O)[C@H]3O)c3nc(N)nc(O)c32)cc1 [1d, 4-MeBn^7GpppG] | almost as good a substrate as Bn^7GpppG | 0.53 | – | 482 ± 81 | 16.9 ± 3.5 | 860 ± 30 | 295 ± 13 | 5.6 | –
Cc1cc(C)cc(C[n+]2cn([C@@H]3O[C@H](COP(=O)(O)OP(=O)([O-])OP(=O)(O)OC[C@H]4O[C@@H](n5cnc6c(=O)[nH]c(N)nc65)[C@H](O)[C@@H]4O)[C@@H](O)[C@H]3O)c3nc(N)nc(O)c32)c1 [1f, 3,5-di-MeBn^7GpppG] | Lower susceptibility to hydrolysis | 0.95 | – | 646 ± 114 | 13.2 ± 2 | 1100 ± 100 | 384 ± 41 | 7.5 | –
Nc1nc(O)c2c(n1)n([C@@H]1O[C@H](COP(=O)(O)OP(=O)([O-])OP(=O)(O)OC[C@H]3O[C@@H](n4cnc5c(=O)[nH]c(N)nc54)[C@H](O)[C@@H]3O)[C@@H](O)[C@H]1O)c[n+]2Cc1ccc(F)cc1F [1j, 2,4-di-F-Bn^7GpppG] | – | 0.70 | – | 598 ± 87 | 8.4 ± 1.5 | 870 ± 50 | 298 ± 18 | 6.9 | ~70
Nc1nc(O)c2c(n1)n([C@@H]1O[C@H](COP(=O)(O)OP(=O)([O-])OP(=O)(O)OC[C@H]3O[C@@H](n4cnc5c(=O)[nH]c(N)nc54)[C@H](O)[C@@H]3O)[C@@H](O)[C@H]1O)c[n+]2Cc1ccc(C(=O)O)cc1 [1m, 4-COOH-Bn^7GpppG] | Lower susceptibility to hydrolysis | 0.93 | completely disrupted the binding | > 50000 | > 500 | – | – | – | –
Nc1nc(O)c2c(n1)n([C@@H]1O[C@H](COP(=O)(O)OP(=O)([O-])OP(=O)(O)OC[C@H]3O[C@@H](n4cnc5c(=O)[nH]c(N)nc54)[C@H](O)[C@@H]3O)[C@@H](O)[C@H]1O)c[n+]2Cc1cccc2ccccc12 [1o, α-Naphm^7GpppG] | lower susceptibility to hDcpS than m^7GpppG | 0.97 | disrupted the binding to a similar extent as 2-methylbenzyl | 3040 ± 490 | – | 2100 ± 100 | 739 ± 49 | 35 | –
Nc1nc(O)c2c(n1)n([C@@H]1O[C@H](COP(=O)(O)OP(=O)([O-])OP(=O)(O)OC[C@H]3O[C@@H](n4cnc5c(=O)[nH]c(N)nc54)[C@H](O)[C@@H]3O)[C@@H](O)[C@H]1O)c[n+]2Cc1ccc2ccccc2c1 [1p, β-Naphm^7GpppG] | lower susceptibility to hDcpS than m^7GpppG | 0.84 | disrupted the binding to a similar extent as 2-methylbenzyl | 1060 ± 190 | 15.9 ± 3.4 | – | – | 12 ± 0.6 | –

Reference: article PMC8623273, “Novel N7-Arylmethyl Substituted Dinucleotide mRNA 5′ cap Analogs: Synthesis and Evaluation as Modulators of Translation” (Pharmaceutics, 2021)
